Four molecules from publication PMC3748812 (Angewandte Chemie (International ed. in English), 2013) can be followed below.

What all share (type): biochemical
The target in assay [1] is T1, ethylbenzene dehydrogenase (EbDH) (Aromatoleum aromaticum, UniProt Q5P5I0). Briefly: inhibition of ethylbenzene-dependent activity, dose response. The settings on record: substrate ethylbenzene; preincubated with inhibitor.
Assay [2] addresses T1, ethylbenzene dehydrogenase (EbDH). Put plainly: inhibition of ethylbenzene-dependent activity. The settings on record: substrate ethylbenzene.
For assay [3] the target is unchanged. Briefly: ethylbenzene hydroxylation activity assay. As to conditions: native substrate; Km in text is cited from an earlier paper.

What is called IC50 is the concentration at which inhibition is half-maximal.

Molecule `CCB1C=CC=CN1` [B-ethyl-1,2-azaborine] came in with an IC50 in assay [1] of 100 µM. `CCN1BC=CC=C1` [N-ethyl-1,2-azaborine] showed an IC50 in assay [1] of 2.8 µM. As for `CCn1ccnc1` [N-ethylimidazole], the IC50 in assay [2] amounted to 2200 µM.

`CCc1ccccc1` [ethylbenzene]: the “ethylbenzene hydroxylation activity assay” value in assay [3] is “Nonlinear plots of the remaining ethylbenzene-dependent activity of EbDH”.
